Experimental findings from US20260263431A1, “ARYL HYDROCARBON RECEPTOR AGONIST PRODRUGS AND METHODS OF USE THEREOF” (Allianthera (Suzhou) Biopharmaceutical Co., Ltd., priority 2022, published 2026) are described below.

Data set [1] in a line: Caco-2 permeability assay (AB). Format: in vitro ADME. To be noted: human, apical to basolateral. How it is done:
(§1) Compounds were tested under typical Caco-2 and S9 assay conditions.
(Caco-2 cells form a polarised layer with tight junctions and transporters.)

The nature of data set [2]: S9 stability assay. Format: in vitro ADME. To be noted: read-out: mouse S9 Clint. How it is done: as §1
Data set [3] concerns the target T1, AHR (Homo sapiens, UniProt P35869).
T1 sequence (P35869 11-848): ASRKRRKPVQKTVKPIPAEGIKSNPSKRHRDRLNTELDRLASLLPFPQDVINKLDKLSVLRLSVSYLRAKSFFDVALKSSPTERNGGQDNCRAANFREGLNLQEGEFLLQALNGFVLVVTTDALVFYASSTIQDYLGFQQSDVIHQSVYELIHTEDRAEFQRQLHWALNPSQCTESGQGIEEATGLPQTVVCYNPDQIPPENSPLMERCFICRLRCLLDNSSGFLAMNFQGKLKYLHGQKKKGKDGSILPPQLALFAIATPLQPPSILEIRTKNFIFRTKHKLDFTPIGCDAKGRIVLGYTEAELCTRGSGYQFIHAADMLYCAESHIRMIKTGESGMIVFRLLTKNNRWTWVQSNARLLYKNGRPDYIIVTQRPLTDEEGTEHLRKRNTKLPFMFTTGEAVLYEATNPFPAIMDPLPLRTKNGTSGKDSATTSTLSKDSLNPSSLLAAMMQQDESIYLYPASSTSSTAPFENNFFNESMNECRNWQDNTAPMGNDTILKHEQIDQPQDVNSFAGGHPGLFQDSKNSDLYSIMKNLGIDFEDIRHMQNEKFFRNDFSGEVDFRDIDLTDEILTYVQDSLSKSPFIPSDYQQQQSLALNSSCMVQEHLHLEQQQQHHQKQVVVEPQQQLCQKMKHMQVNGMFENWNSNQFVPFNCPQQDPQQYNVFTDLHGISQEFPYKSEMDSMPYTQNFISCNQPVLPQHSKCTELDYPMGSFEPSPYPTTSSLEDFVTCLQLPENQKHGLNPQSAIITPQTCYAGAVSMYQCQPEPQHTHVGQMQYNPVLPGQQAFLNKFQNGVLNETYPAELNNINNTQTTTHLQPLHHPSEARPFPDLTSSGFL
Put plainly: AHR activity of the metabolite (reEC50 / abEC50). Format: cell-based. To be noted: relative to tapinarof at 1 μM. How it is done: The AHR activity of the metabolite is measured as AHR reEC50 (as % activation to tapinarof at 1 μM)—of 166.1 nM (69.5%) and a AHR abEC50 of 241.5 nM.

Data set [4] can be described thus: In vitro anaerobic metabolism in mouse fecal homogenate. It is filed as in vitro ADME. To be noted: 20 μM, anaerobic 37° C. How it is done: (§2) The ability of the compounds of Formula (I) to release the active compound in the small or large intestine is assessed by introducing representative compounds of the disclosure to the contents of either a rodent small intestine or a rodent large intestine for up to 24 hours at 37° C. The amount of active drug released after the incubation period is determined by LC-MS/MS. Additional studies are conducted by incubating representative compounds of the disclosure with human fecal samples.
(§3) In Vitro Anaerobic Metabolism in Fecal Homogenates (vs. Control)
(§4) Compound 1 was dissolved in PBS (pH 7.4) to provide a 200 μM working solution. An aliquot of 50 μL volume was spiked to each 450 μL fecal homogenate incubation sample to provide an incubation concentration at 20 μM.
(§5) An estimated 1 g to 2 g wet weight of fecal material from healthy mice and rats (separately) was immediately collected in a pre-labelled 50 mL EP tube and stored at ambient room temperature. Based on the weight of each fecal material, a dilution with 0.01 M isotonic phosphate buffer (pH 7.0) is performed to provide a 12.5× diluted fecal homogenate. All fecal materials were stored at room temperature before being used in fecal homogenate preparation.
(§6) Under anaerobic conditions, each of the fecal specimen materials collected in 0.01 M isotonic phosphate buffer (pH 7.0) was homogenized by shaking and mixing with a stirrer. Each lot of the fecal homogenate material was added with an appropriate volume of 0.01 M isotonic phosphate buffer (pH 7.0) to provide fecal homogenate at 12.5× dilution. Under anaerobic condition in a nitrogen glove box purged with high purity nitrogen to ensure <1% oxygen level, the fecal homogenate was transferred to a clean container and diluted with 3 volumes of Brain Heart Infusion Broth (BHI) to provide a 50× diluted fecal homogenate. The diluted fecal homogenate matrix at an aliquot of 0.45 mL was dispensed into 2-mL EP tube, freshly prepared Compound 1 working solutions were then spiked to the fecal homogenate sample vials for incubation over the metabolic stability time-course.
(§7) Compound 1 was incubated at a target concentration of 20 μM in each fecal homogenate over a time course of 0, 1, 2, 4, 6 and 24 hours. Metabolic incubation at each time point was performed in triplicate. Incubation of the samples was performed in 2-mL EP tube. Into each pre-labeled sample vial, 50 μL of a Compound 1 working solution was accurately dispensed followed by the addition of the 0.45 mL pre-incubated fecal homogenate. Sample were capped, vortex mixed and incubated under an anaerobic environment at 37° C. At the end of each incubation time point, 1.0 mL of IS (Internal Standard) as a stop solvent was added to each sample with vortex mixed to stop the metabolic reactions. Samples at the 0-hour time point were pre-treated with the addition of IS stop solvent prior to the spiking of fecal homogenate and Compound 1. All samples were stored at −80° C. prior to LC-MS/MS assay. Samples are analyzed by LC-MS/MS. The MS detection is performed using a Sciex API 5500+ instrument. Each compound is analyzed by reverse phase HPLC.

Data set [5] in a line: In vitro anaerobic metabolism in rat fecal homogenate. Format: in vitro ADME. To be noted: 20 μM, anaerobic 37° C. As to the method: as §2, §3, §4, §5, §6, §7
Data set [6] can be described thus: Stability in BHI broth (vehicle stability control). It is filed as in vitro ADME. To be noted: 20 μM.

The structures appear in SMILES notation. Where only a bound is given, the exact number is not on record here.

For `CC(C)c1c(F)cc(/C=C/c2ccccc2)cc1OS(=O)(=O)O` [Compound 10, {3-fluoro-2-isopropyl-5-[(E)-2-phenylethenyl]phenyl}oxidanesulfonic acid], the Papp A→B in data set [1] came to 0.25 ×10⁻⁶ cm/s. Moreover, the intrinsic clearance in mouse S9 in data set [2] was 0.47 µL/min/mg.

Compound `CC(C)c1ncc(/C=C/c2ccccc2F)cc1OS(=O)(=O)O` [Compound 5, {5-[(E)-2-(2-fluorophenyl)ethenyl]-2-isopropylpyridin-3-yl}oxidanesulfonic acid] yielded a Papp A→B in data set [1] of 0.44 ×10⁻⁶ cm/s. Also, in data set [2], the intrinsic clearance in mouse S9 amounted to 2.64 µL/min/mg.

For `CC(C)c1c(O)cc(-c2ccc3cc(F)ccc3n2)cc1OS(=O)(=O)O` [Compound 8, [5-(6-fluoroquinolin-2-yl)-3-hydroxy-2-isopropylphenyl]oxidanesulfonic acid], the intrinsic clearance in mouse S9 in data set [2] was found to be 0.02 µL/min/mg.

With `CC(C)c1c(OP(=O)(O)O)cc(-c2cnc3ccccc3c2)cc1OP(=O)(O)O` [Compound 4, 2-isopropyl-3-(phosphonooxy)-5-(quinolin-3-yl)phenoxyphosphonic acid], the Papp A→B in data set [1] is < 0.2 ×10⁻⁶ cm/s. In addition, the intrinsic clearance in mouse S9 in data set [2] stood at 3.43 µL/min/mg.

In data set [1], `CC(C)c1c(O)cc(-c2cnc3ccccc3c2)cc1OS(=O)(=O)O` [Compound 3, [3-hydroxy-2-isopropyl-5-(quinolin-3-yl)phenyl]oxidanesulfonic acid] displayed a Papp A→B of 0.29 ×10⁻⁶ cm/s.

For `CC(C)c1ncc(/C=C/c2ccccc2)cc1O` [metabolite], the “% activation to tapinarof at 1 μM” value in data set [3] was 69.5%.

On to `CC(C)c1ncc(/C=C/c2ccc(F)cc2)cc1OS(=O)(=O)O` [Compound 6, {5-[(E)-2-(4-fluorophenyl)ethenyl]-2-isopropylpyridin-3-yl}oxidanesulfonic acid], for which the apparent permeability from apical to basolateral (Papp A→B) in data set [1] came out at 0.62 ×10⁻⁶ cm/s. Further, the intrinsic clearance in mouse S9 in data set [2] was 1.26 µL/min/mg.

On to `CC(C)c1c(O)cc(-c2cc(F)c3cnc(N)nc3c2)cc1OS(=O)(=O)O` [Compound 7, [5-(2-amino-5-fluoroquinazolin-7-yl)-3-hydroxy-2-isopropylphenyl]oxidanesulfonic acid], for which the Papp A→B in data set [1] came to 0.37 ×10⁻⁶ cm/s.

As for `CC(C)c1c(O)cc(-c2cc3ccccc3cn2)cc1OS(=O)(=O)O` [Compound 2, [3-hydroxy-2-isopropyl-5-(isoquinolin-3-yl)phenyl]oxidanesulfonic acid], the intrinsic clearance in mouse S9 in data set [2] was 1.18 µL/min/mg.

`CCCc1c(F)cc(/C=C/c2ccccc2)cc1OS(=O)(=O)O` [Compound 9, {3-fluoro-5-[(E)-2-phenylethenyl]-2-propylphenyl}oxidanesulfonic acid] yielded a Papp A→B in data set [1] of 0.29 ×10⁻⁶ cm/s. In addition, the intrinsic clearance in mouse S9 in data set [2] came to 0.7 µL/min/mg.

For the compound `Cc1ccnc2cc(-c3cc(F)c(C(C)C)c(OP(=O)(O)O)c3)ccc12` [Compound 11, 3-fluoro-2-isopropyl-5-(4-methylquinolin-7-yl)phenyl dihydrogen phosphate], in data set [2], the intrinsic clearance in mouse S9 is 0.68 µL/min/mg.

In data set [1], `CC(C)c1ncc(/C=C/c2ccccc2)cc1OS(=O)(=O)O` [Compound 1, {2-isopropyl-5-[(E)-2-phenylethenyl]pyridin-3-yl}oxidanesulfonic acid] had a Papp A→B of 0.44 ×10⁻⁶ cm/s. Besides, the intrinsic clearance in mouse S9 in data set [2] is 4.91 µL/min/mg. For the same compound, the “Compound 1 Conc. Average” value was 23.7 µM in data set [4] (0 hr); 21.8 µM in data set [4] (1 hr); 21.6 µM in data set [4] (2 hr); 19.2 µM in data set [4] (4 hr); 14.75 µM in data set [4] (6 hr); 0.0738 µM in data set [4] (24 hr). In addition, the “Compound 1 Conc. Average” value in data set [5] (0 hr) came to 25.05 µM; in data set [5] (1 hr), 21.3 µM; in data set [5] (2 hr), 20.55 µM; in data set [5] (4 hr), 14.2 µM; in data set [5] (6 hr) it was 3.02 µM; in data set [5] (24 hr) it was 0.0657 µM. Besides, the entries for the “Compound 1 Conc. Average” value in data set [6] (0 hr) and in data set [6] (24 hr) were 23.2 µM and 21.9 µM, respectively.

What is called Papp A→B is how fast a substance crosses the layer from the apical side. A lower Papp A→B goes with poor permeation.
